Test results published in patent US20180000085A1, “USE OF PICOLINAMIDE COMPOUNDS WITH FUNGICIDAL ACTIVITY” (DOW AGROSCIENCES LLC, priority 2014, published 2018).

Columns and labels:
Zymoseptoria tritici = assay: Leaf blotch of wheat (SEPTTR) disease control on wheat seedlings; assay type: in vivo; parameters: key to SEPTTR 1DP, HV activity at 100 ppm (% control rating) / SEPTTR 3DC, HV activity at 100 ppm (% control rating) / SEPTTR disease control, 1DP / SEPTTR disease control, 3DC / SEPTTR 1DP disease control rating, HV activity / SEPTTR 3DC disease control rating, HV activity / SEPTTR 3DC, LV activity at 125.1 g/H (% Control rating) / SEPTTR 1DP, LV activity at 125.1 g/H (% Control rating) / SEPTTR 1DP disease control rating, LV activity at 125.1 g/H / SEPTTR 3DC disease control rating, LV activity at 125.1 g/H / SEPTTR 3DC disease control rating, HV activity at 100 ppm / SEPTTR 1DP disease control rating, HV activity at 100 ppm / HV activity at 100 ppm SEPTTR 3DC (disease control rating) / HV activity at 100 ppm SEPTTR 1DP (disease control rating) / LV activity at 125.1 g/H SEPTTR 1DP (disease control rating) / LV activity at 125.1 g/H SEPTTR 3DC (disease control rating): A: > 80; B: ≤ 80; C: Not Tested; D: No Activity Observed in the Reported Assay; details: HV application at 100 ppm, wheat leaf blotch; for SEPTTR 1DP disease control rating, HV activity: 1 Day Protectant; for SEPTTR 3DC disease control rating, HV activity: 3 Day Curative
Puccinia triticina = assay: Wheat brown rust (PUCCRT) disease control on wheat seedlings; assay type: in vivo; parameters: key to PUCCRT 3DC, HV activity at 100 ppm (% control rating) / PUCCRT disease control, 3DC / PUCCRT 1DP disease control rating, HV activity / PUCCRT 3DC disease control rating, HV activity / PUCCRT 3DC, LV activity at 125.1 g/H (% Control rating) / PUCCRT 1DP, LV activity at 125.1 g/H (% Control rating) / PUCCRT 3DC disease control rating, LV activity at 125.1 g/H / PUCCRT 1DP disease control rating, LV activity at 125.1 g/H / PUCCRT 3DC disease control rating, HV activity at 100 ppm / PUCCRT 1DP disease control rating, HV activity at 100 ppm / HV activity at 100 ppm PUCCRT 3DC (disease control rating) / LV activity at 125.1 g/H PUCCRT 1DP (disease control rating) / LV activity at 125.1 g/H PUCCRT 3DC (disease control rating): A: > 80; B: ≤ 80; C: Not Tested; D: No Activity Observed in the Reported Assay; details: HV application at 100 ppm, wheat brown rust; for PUCCRT 1DP disease control rating, HV activity: 1 Day Protectant; for PUCCRT 3DC disease control rating, HV activity: 3 Day Curative

SMILES	SEPTTR 1DP disease control rating, HV activity (Zymoseptoria tritici)	SEPTTR 3DC disease control rating, HV activity (Zymoseptoria tritici)	PUCCRT 1DP disease control rating, HV activity (Puccinia triticina)	PUCCRT 3DC disease control rating, HV activity (Puccinia triticina)
CCC(CC)[C@@H](Oc1cccc(Cl)c1)[C@H](C)OC(=O)[C@@H](NC(=O)c1nccc(OC)c1O)C(C)C [Cmpd 406]	B (≤ 80)	B (≤ 80)	B (≤ 80)	B (≤ 80)
CCC(CC)[C@@H](Oc1ccc(Cl)cc1)[C@H](C)OC(=O)[C@@H](NC(=O)c1nccc(OC)c1O)C(C)C [Cmpd 407]	B (≤ 80)	D	B (≤ 80)	B (≤ 80)
CCC(CC)[C@@H](Oc1ccc(Cl)cc1Cl)[C@H](C)OC(=O)[C@@H](NC(=O)c1nccc(OC)c1O)C(C)C [Cmpd 408]	B (≤ 80)	D	B (≤ 80)	D
CCC(CC)[C@@H](Oc1cc(F)ccc1F)[C@H](C)OC(=O)[C@@H](NC(=O)c1nccc(OC)c1O)C(C)C [Cmpd 409]	D	D	B (≤ 80)	B (≤ 80)
CCC(CC)[C@@H](Oc1cc(F)cc(Cl)c1)[C@H](C)OC(=O)[C@@H](NC(=O)c1nccc(OC)c1O)C(C)C [Cmpd 410]	B (≤ 80)	B (≤ 80)	A (> 80)	B (≤ 80)
CCC(CC)[C@@H](Oc1ccccc1Cl)[C@H](C)OC(=O)[C@@H](NC(=O)c1nccc(OC)c1O)C(C)C [Cmpd 411]	B (≤ 80)	B (≤ 80)	A (> 80)	D
CCC(CC)[C@@H](Oc1ccc(C(F)(F)F)cc1)[C@H](C)OC(=O)[C@@H](NC(=O)c1nccc(OC)c1O)C(C)C [Cmpd 412]	B (≤ 80)	B (≤ 80)	B (≤ 80)	D
CCC(CC)[C@@H](Oc1cccc(-c2ccccc2)c1)[C@H](C)OC(=O)[C@@H](NC(=O)c1nccc(OC)c1O)C(C)C [Cmpd 413]	B (≤ 80)	D	B (≤ 80)	D
CCC(CC)[C@@H](Oc1ccc(-c2ccccc2)cc1)[C@H](C)OC(=O)[C@@H](NC(=O)c1nccc(OC)c1O)C(C)C [Cmpd 414]	A (> 80)	B (≤ 80)	B (≤ 80)	B (≤ 80)
C=C[C@H](C)[C@@H](Oc1ccccc1)[C@H](C)OC(=O)[C@H](C)NC(=O)c1nccc(OC)c1O [Cmpd 415]	A (> 80)	A (> 80)	A (> 80)	A (> 80)
CCCOC(CC)C(Oc1ccccc1)C(C)OC(=O)C1(NC(=O)c2nccc(OC)c2O)CC1 (stereo not shown) [Cmpd 416]	B (≤ 80)	D	B (≤ 80)	D
CCCOC(CC)C(Oc1ccccc1)C(C)OC(=O)C(C)(C)NC(=O)c1nccc(OC)c1O (stereo not shown) [Cmpd 417]	D	B (≤ 80)	D	D
CCOc1ccnc(C(=O)N[C@@H](C)C(=O)O[C@@H](C)[C@H](Oc2ccccc2)C(C)C)c1O [Cmpd 418]	B (≤ 80)	D	B (≤ 80)	A (> 80)
CCC(CC)[C@H](Oc1cccc(F)c1)[C@H](C)OC(=O)[C@H](C)NC(=O)c1nccc(OC)c1O [Cmpd 419]	B (≤ 80)	B (≤ 80)	A (> 80)	D
CCC(CC)[C@H](Oc1ccc(Cl)cc1)[C@H](C)OC(=O)[C@H](C)NC(=O)c1nccc(OC)c1O [Cmpd 420]	A (> 80)	B (≤ 80)	B (≤ 80)	B (≤ 80)
CCC(CC)[C@H](Oc1ccc(Cl)cc1Cl)[C@H](C)OC(=O)[C@H](C)NC(=O)c1nccc(OC)c1O [Cmpd 421]	B (≤ 80)	D	B (≤ 80)	D
CCC(CC)C(Oc1cc(F)ccc1F)C(C)OC(=O)C(C)NC(=O)c1nccc(OC)c1O (stereo not shown) [Cmpd 422]	A (> 80)	B (≤ 80)	A (> 80)	B (≤ 80)
CCC(CC)C(Oc1cc(F)cc(Cl)c1)C(C)OC(=O)C(C)NC(=O)c1nccc(OC)c1O (stereo not shown) [Cmpd 423]	A (> 80)	A (> 80)	A (> 80)	B (≤ 80)
CC(NC(=O)c1ncccc1O)C(=O)OC(C)C(Oc1ccccc1)C(C)C (stereo not shown) [Cmpd 424]	A (> 80)	A (> 80)	A (> 80)	A (> 80)
CC(NC(=O)c1nccc(Cl)c1O)C(=O)OC(C)C(Oc1ccccc1)C(C)C (stereo not shown) [Cmpd 425]	D	D	B (≤ 80)	D
CCC(CC)C(Oc1cccc(F)c1)C(C)OC(=O)C(CC(C)C)NC(=O)c1nccc(OC)c1O (stereo not shown) [Cmpd 426]	D	D	B (≤ 80)	D
CCC(CC)C(Oc1ccc(Cl)cc1)C(C)OC(=O)C(CC(C)C)NC(=O)c1nccc(OC)c1O (stereo not shown) [Cmpd 427]	D	D	B (≤ 80)	D
CCC(CC)C(Oc1cc(F)ccc1F)C(C)OC(=O)C(CC(C)C)NC(=O)c1nccc(OC)c1O (stereo not shown) [Cmpd 428]	D	D	B (≤ 80)	D
CCC(CC)C(Oc1cc(F)cc(Cl)c1)C(C)OC(=O)C(CC(C)C)NC(=O)c1nccc(OC)c1O (stereo not shown) [Cmpd 429]	B (≤ 80)	D	B (≤ 80)	D
CCC(CC)C(Oc1ccc(Cl)cc1Cl)C(C)OC(=O)C(CC(C)C)NC(=O)c1nccc(OC)c1O (stereo not shown) [Cmpd 430]	D	D	B (≤ 80)	D
COc1ccnc(C(=O)NC(C)C(=O)OC(C)C(OC(=O)c2ccccc2)C(C)C)c1O (stereo not shown) [Cmpd 431]	D	D	A (> 80)	D
COc1ccnc(C(=O)NC(C)C(=O)OC(C)C(Oc2cccc(Cl)c2)C(C)C)c1O (stereo not shown) [Cmpd 432]	A (> 80)	D	A (> 80)	B (≤ 80)
COc1ccnc(C(=O)NC(C)C(=O)OC(C)C(Oc2cccc(C(F)(F)F)c2)C(C)C)c1O (stereo not shown) [Cmpd 433]	D	D	A (> 80)	A (> 80)
